Laboratory results: ChEMBL document CHEMBL3997788, “Virtual screening and experimental validation identify novel modulators of nuclear receptor RXRα from Drugbank database” (Bioorg Med Chem Lett, 2017)
The source made the active and inactive calls. The rule behind the calls is not given here.

Experiments:
[1] = biological target: T1, Retinoic acid receptor RXR-alpha (Homo sapiens) (UniProt P19793); assay: Antagonist activity at Myc-tagged RXRalpha (unknown origin) expressed in human MCF-7 cells assessed as inhibition of 9-cis-RA induced receptor transactivation at 10 uM after 24 hrs by luciferase reporter gene assay; assay type: cell-based
T1 sequence (whole entry): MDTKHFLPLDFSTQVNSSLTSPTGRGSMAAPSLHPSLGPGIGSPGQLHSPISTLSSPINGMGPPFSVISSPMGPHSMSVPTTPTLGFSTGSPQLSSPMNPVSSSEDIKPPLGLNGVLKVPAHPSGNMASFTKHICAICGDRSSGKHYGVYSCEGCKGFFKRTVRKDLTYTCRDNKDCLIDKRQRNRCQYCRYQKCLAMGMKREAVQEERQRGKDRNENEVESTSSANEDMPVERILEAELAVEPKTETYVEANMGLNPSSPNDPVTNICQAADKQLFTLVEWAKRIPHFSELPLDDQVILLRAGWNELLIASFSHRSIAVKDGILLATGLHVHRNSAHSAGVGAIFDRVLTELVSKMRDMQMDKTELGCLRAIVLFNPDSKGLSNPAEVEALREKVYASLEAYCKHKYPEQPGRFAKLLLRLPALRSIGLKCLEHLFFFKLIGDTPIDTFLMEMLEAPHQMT

[2] = biological target: T1, Retinoic acid receptor RXR-alpha (Homo sapiens); assay: Antagonist activity at Myc-tagged RXRalpha (unknown origin) expressed in human MCF-7 cells assessed as inhibition of 9-cis-RA induced receptor transactivation after 24 hrs by luciferase reporter gene assay; assay type: cell-based
[3] = biological target: T2, Retinoic acid receptor RXR-alpha (Homo sapiens, UniProt P19793); assay: Binding affinity to RXRalpha-LBD (unknown origin) measured up to 120 sec by surface plasma resonance method
T2 sequence (P19793 whole entry): T1 sequence (whole entry)

[4] = biological target: T1, Retinoic acid receptor RXR-alpha (Homo sapiens); assay: Antagonist activity at Myc-tagged RXRalpha (unknown origin) expressed in human MCF-7 cells assessed as inhibition of 9-cis-RA induced receptor transactivation at 1 uM after 24 hrs by luciferase reporter gene assay; assay type: cell-based
[5] = biological target: T1, Retinoic acid receptor RXR-alpha (Homo sapiens); assay: Antagonist activity at Myc-tagged RXRalpha (unknown origin) expressed in human MCF-7 cells assessed as inhibition of 9-cis-RA induced receptor transactivation at 100 nM after 24 hrs by luciferase reporter gene assay; assay type: cell-based
[6] = biological target: T1, Retinoic acid receptor RXR-alpha (Homo sapiens); assay: Agonist activity at Myc-tagged RXRalpha (unknown origin) expressed in human MCF-7 cells assessed as increase in 9-cis-RA induced receptor transactivation at 5 to 10 uM after 24 hrs by luciferase reporter gene assay; assay type: cell-based
[7] = biological target: T1, Retinoic acid receptor RXR-alpha (Homo sapiens); assay: Agonist activity at Myc-tagged RXRalpha (unknown origin) expressed in human MCF-7 cells assessed as increase in 9-cis-RA induced receptor transactivation at 1 uM after 24 hrs by luciferase reporter gene assay; assay type: cell-based
[8] = biological target: T1, Retinoic acid receptor RXR-alpha (Homo sapiens); assay: Agonist activity at Myc-tagged RXRalpha (unknown origin) expressed in human MCF-7 cells assessed as receptor transactivation at 10 uM after 24 hrs by luciferase reporter gene assay; assay type: cell-based

SMILES | inhibition [1] | Kd [3] [µM] | also measured
Clc1ccc(CCC(Cn2ccnc2)Sc2c(Cl)cccc2Cl)cc1 (stereo not drawn) | Active | – | –
CC(C)n1c(/C=C/C(O)CC(O)CC(=O)O)c(-c2ccc(F)cc2)c2ccccc21 (stereo not drawn) [FLUVASTATIN] | Active | 11 | inhibition [2]: Dose-dependent effect
O=C1C=CCC(/C=C/c2c(C3CC3)nc3ccccc3c2-c2ccc(F)cc2)O1 (stereo not drawn) | inactive | 138 | –
O=C1[C@H](CC[C@H](O)c2ccc(F)cc2)[C@@H](c2ccc(O)cc2)N1c1ccc(F)cc1 | Active | – | –
O=C1CCc2cc(OCCCCc3nnnn3C3CCCCC3)ccc2N1 | Active | – | –
O=C(O)C[C@H](O)C[C@H](O)/C=C/c1c(C2CC2)nc2ccccc2c1-c1ccc(F)cc1 [PITAVASTATIN CALCIUM] | Active | 13.3 | inhibition [4]: Active
O=C(O)/C=C/C=C/C=C/c1c(C2CC2)nc2ccccc2c1-c1ccc(F)cc1 | – | 5.12 | inhibition [5]: Active
O=c1[nH]c2ccccc2n1CCCN1CCC(n2c(=O)[nH]c3cc(Cl)ccc32)CC1 [DOMPERIDONE] | – | 8.8 | Activity [6]: Active; Activity [7]: inactive; Activity [8]: inactive
CC1=C(C)C(=O)C(C(CCCCCC(=O)O)c2ccccc2)=C(C)C1=O (stereo not drawn) | Active | – | –
CC[C@H](C)C(=O)O[C@H]1C[C@@H](O)C=C2C=C[C@H](C)[C@H](CC[C@@H](O)C[C@@H](O)CC(=O)O)[C@H]21 | inactive | – | –
CC(C)c1nc(N(C)S(C)(=O)=O)nc(-c2ccc(F)cc2)c1/C=C/[C@@H](O)C[C@@H](O)CC(=O)O | Active | – | –
CN(CCOc1ccc(CC2SC(=O)NC2=O)cc1)c1ccccn1 (stereo not drawn) | – | – | Activity [6]: Active; Activity [7]: inactive; Activity [8]: inactive
